Test systems include NCI-H522 lung; SK-OV-3 ovarian; M14 melanoma; OVCAR-4 ovarian; KM12 colon; NCI-H460 lung; DU-145 prostate; T-47D breast; A498 renal; HOP-92 NSCLC; SF-539 CNS; BT-549 breast; MDA-MB-435.
Common to all, as to assay: NCI tumour cell line growth inhibition, 48 h

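Five compound concentrations were applied to cells in 96-well plates for 48 hours; endpoints were derived by simple linear interpolation of the resulting dose-response curve. TGI: concentration producing complete growth inhibition.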

For `CCOC(=O)CCc1c(C(=O)OCC)[nH]c(/C=C2/NC(=O)C(C)=C2CC)c1C`, the TGI was 31.8 µM with NCI-H522 lung; greater than 100 µM with SK-OV-3 ovarian; 20.8 µM in the assay on M14 melanoma; 8.91 µM with OVCAR-4 ovarian; 23.9 µM in the assay on KM12 colon; greater than 100 µM with NCI-H460 lung. The TGI in the assay with DU-145 prostate was 44.6 µM; in the assay on T-47D breast, 9.59 µM; in the assay on A498 renal it was 77.6 µM; with HOP-92 NSCLC it was 42.4 µM; with SF-539 CNS, 44.4 µM; in the assay with BT-549 breast, 6.19 µM. In addition, the TGI in the assay on MDA-MB-435 stood at 19.7 µM.

Consider `COc1ccccc1NC(=O)C(C#N)=C(SC)SC`, for which the TGI in the assay with NCI-H522 lung, in the assay on SK-OV-3 ovarian, in the assay with M14 melanoma, with OVCAR-4 ovarian, in the assay with KM12 colon and in the assay with NCI-H460 lung was greater than 100 µM throughout. Moreover, the TGI in the assay on DU-145 prostate, in the assay with T-47D breast, with A498 renal, in the assay on HOP-92 NSCLC, in the assay on SF-539 CNS and in the assay with BT-549 breast was greater than 100 µM in each case. Besides, the TGI in the assay on MDA-MB-435 was greater than 100 µM.

Consider `CC(C)=CCC/C(C)=C/Cc1cc(/C=C/c2cc(O)c(CC=C(C)C)c(O)c2)cc(O)c1O`, for which the TGI stood at 0.38 µM in the assay with NCI-H522 lung; 21.5 µM in the assay with SK-OV-3 ovarian; 16 µM in the assay on M14 melanoma; 7.1 µM in the assay with OVCAR-4 ovarian; 14.7 µM in the assay on KM12 colon; 9.2 µM in the assay on NCI-H460 lung. Further, the TGI was found to be 26.6 µM in the assay with DU-145 prostate; 4.54 µM in the assay on T-47D breast; 20.6 µM in the assay on A498 renal; 15.6 µM in the assay on HOP-92 NSCLC; 13.8 µM in the assay on SF-539 CNS; 13.3 µM in the assay with BT-549 breast. Further, the TGI with MDA-MB-435 is 12.2 µM.

For `COc1ccc(NC(=O)C2=C(SC)C(C#N)C(=O)N=C2N)cc1` (stereo not given), the TGI was 32.1 µM with NCI-H522 lung; greater than 100 µM with SK-OV-3 ovarian; greater than 100 µM in the assay with M14 melanoma; greater than 100 µM in the assay on OVCAR-4 ovarian; 8.57 µM with KM12 colon; greater than 100 µM in the assay with NCI-H460 lung. For the same compound, the TGI with DU-145 prostate was greater than 100 µM; in the assay on T-47D breast, greater than 100 µM; in the assay with A498 renal, greater than 100 µM; in the assay with HOP-92 NSCLC, 69.8 µM; in the assay on SF-539 CNS, greater than 100 µM; in the assay with BT-549 breast, greater than 100 µM. Also, in the assay with MDA-MB-435, the TGI was greater than 100 µM.

Consider `O=c1nc2n(CCO)c(-c3ccccc3)c(-c3ccccc3)nc-2c(=O)[nH]1`, for which the TGI in the assay with NCI-H522 lung, in the assay with SK-OV-3 ovarian, in the assay on M14 melanoma, in the assay with OVCAR-4 ovarian, in the assay on KM12 colon and with NCI-H460 lung was greater than 100 µM in each case. Besides, the TGI in the assay with DU-145 prostate, in the assay on T-47D breast, in the assay with A498 renal, with HOP-92 NSCLC, in the assay with SF-539 CNS and in the assay with BT-549 breast was greater than 100 µM each time. For the same compound, the TGI in the assay on MDA-MB-435 was greater than 100 µM.

Turning to `Oc1ccccc1C=Nc1ccc(Oc2ccc(Cl)cc2)c(Cl)c1`, the TGI was found to be 31.6 µM in the assay with NCI-H522 lung; 71.2 µM in the assay on SK-OV-3 ovarian; 46 µM in the assay with M14 melanoma; 66.2 µM in the assay on OVCAR-4 ovarian; 65.1 µM in the assay on KM12 colon; 54.5 µM in the assay with NCI-H460 lung. The TGI in the assay with DU-145 prostate is greater than 100 µM; in the assay on T-47D breast, 40.1 µM; in the assay with A498 renal it was 33.7 µM; with HOP-92 NSCLC, 41.4 µM; in the assay on SF-539 CNS, 58.7 µM; in the assay with BT-549 breast, 44.4 µM. This compound also registered a TGI in the assay on MDA-MB-435 greater than 100 µM.

In the case of `CC1C2CC(C(C3C(=O)C4CC3C(C)(C)C4C)C2=O)C1(C)C` (stereo not given), the TGI in the assay with NCI-H522 lung, with SK-OV-3 ovarian, in the assay on M14 melanoma, in the assay with OVCAR-4 ovarian, in the assay on KM12 colon and in the assay with NCI-H460 lung was greater than 100 µM throughout. The TGI in the assay with DU-145 prostate, in the assay with T-47D breast, with A498 renal, with HOP-92 NSCLC, with SF-539 CNS and in the assay with BT-549 breast was greater than 100 µM each time. The TGI in the assay on MDA-MB-435 was greater than 100 µM.

On to `N#Cc1cnn2c1n[n+]([O-])c1ccc(Cl)cc12`, for which the TGI was 3.81 µM in the assay with NCI-H522 lung; 23.8 µM in the assay on SK-OV-3 ovarian; 31.8 µM in the assay on M14 melanoma; 4.03 µM with OVCAR-4 ovarian; greater than 100 µM in the assay with KM12 colon; 26.5 µM in the assay on NCI-H460 lung. In addition, the TGI in the assay with DU-145 prostate is 28.5 µM; in the assay on T-47D breast, 37.6 µM; in the assay on A498 renal, 46 µM; in the assay with HOP-92 NSCLC it was 5.21 µM; in the assay on SF-539 CNS it was 44.5 µM; with BT-549 breast, 25.4 µM. Further, the TGI with MDA-MB-435 was determined as 26.4 µM.

As to `CCOP(=O)(CS(C)=O)O[C@@H]1C[C@H](C)CC[C@H]1C(C)C` (stereo not given in full), the TGI in the assay with NCI-H522 lung was 6.19 µM; in the assay on SK-OV-3 ovarian it was 19.9 µM; in the assay on M14 melanoma, 31.2 µM; in the assay with OVCAR-4 ovarian, greater than 39.3 µM; with KM12 colon it was greater than 28.7 µM; in the assay with NCI-H460 lung, 17.6 µM. The TGI with DU-145 prostate was 26.2 µM; in the assay on T-47D breast, greater than 29.7 µM; with A498 renal, 4.87 µM; in the assay on HOP-92 NSCLC, 16.9 µM; in the assay on SF-539 CNS it was 26.9 µM; with BT-549 breast it was 17.3 µM. Also, in the assay on MDA-MB-435, the TGI was determined as 11.9 µM.

As to `C[N+](C)(C)CC1Cc2ccccc2C1=O` (stereo not given), the TGI was 4.56 µM in the assay with NCI-H522 lung; greater than 10 µM in the assay on SK-OV-3 ovarian; greater than 6.99 µM in the assay on M14 melanoma; 8.07 µM in the assay with OVCAR-4 ovarian; greater than 10 µM in the assay with KM12 colon; greater than 10 µM with NCI-H460 lung. Moreover, the TGI in the assay with DU-145 prostate was greater than 10 µM; with T-47D breast, 6.49 µM; in the assay with A498 renal it was greater than 10 µM; with HOP-92 NSCLC, greater than 10 µM; with SF-539 CNS, greater than 10 µM; in the assay with BT-549 breast, greater than 10 µM. In the assay with MDA-MB-435, the TGI is greater than 10 µM.

The values above are taken from PubChem BioAssay (NCI).
